Measurements as given in patent US12605350B2, “Composition for preventing, ameliorating, or treating disease caused by nitration of tyrosine in proteins comprising tyrosine as effective component” (INDUSTRY-ACADEMIC COOPERATION FOUNDATION GYEONGSANG …, priority 2020, dated 2026).

Key:
Cu/Zn SOD = test: activity of Cu/Zn SOD, renal ischemia and reperfusion; type: in vivo, mouse; conditions: L-tyrosine 100 mg/kg oral for 4 days, IR
Protocol: (§1) C57BL/6 male mouse (23 to 25 g, KOATECH, South Korea) was allowed to have free access to diets and water in sterile breeding room with constant temperature and humidity. The animals were divided into 3 test groups, i.e., 1) Control group (Sham), 2) Renal ischemia having treatment with prepared solvent and induced reperfusion group (CMC+IR), and 3) Renal ischemia having treatment with L-tyrosine and induced reperfusion group (L-Tyr+IR).
(§2) L-Tyrosine (100 mg/kg) was suspended in 0.5% CMC (carboxymethyl cellulose). The animal was orally administered, once a day for 4 days, with L-tyrosine or the prepared solvent CMC. Thirty minutes after the oral administration on Day 4, renal ischemia was caused. Specifically, the animal abdomen was cut and renal pedicles at both sides were clamped using a Muller atraumatic vascular clamp to cause renal ischemia. After 25 minutes of blood ischemia, the clamp was removed followed by reperfusion. The control group (Sham) received the same operational procedures as above except the ischemia using clamp. Twenty-four hours after the reperfusion, the test animal was sacrificed, blood was collected from the heart, and the tissues were harvested.

[1] = system: mouse model of epileptic seizure which has been induced to have seizure by kainic acid; test: epileptic seizure induced by kainic acid: seizure level, bodyweight, survival
Protocol: Kainic acid (KA, Abcam) was dissolved in physiological saline in hot water bath to prepare 9 mg/ml kainic acid solution. After intraperitoneal injection of kainic acid (30 mg/kg), severity level and symptoms of seizure were recorded for 2 hours. Severity level of seizure was decided based on the criteria given in the following Table 2, and also the bodyweight was measured before and 24 hours after the injection of kainic acid, and then the results are compared to each other.

[2] = system: acute renal failure caused by kidney ischemia or reperfusion injury; test: ROS/RNS amount in mitochondria, renal ischemia and reperfusion; type: in vivo, mouse; conditions: L-tyrosine 100 mg/kg oral for 4 days, IR
Protocol: as §1, §2

[3] = system: chronic immobilization stress group (STR); test: ammonia amount in PFC (Ammonia assay kit); type: in vivo, mouse; conditions: stress group fed tyrosine-diet
Protocol: PFC tissues were weighed at a temperature of not more than −20° C. to prevent them from melting. To a 1.5 ml tube, RIPA (proteinase inhibitor cocktail, containing PIC) in an amount of 100 μl per 10 mg of the tissues and suitable number of glass beads were added, and then the tissues were lysed twice for 30 seconds by using a bullet blender. Lysed tissues were spun down, transferred to a fresh 1.5 ml tube, and then subjected to tissue homogenization for 1 min by ultrasonication. After centrifuged for 15 minutes at 12,000 rpm, supernatant was transferred to a fresh 1.5 ml tube and kept at −80° C. until use. […]
To 100 μl of the ammonia assay reagent provided in the Ammonia assay kit, 10 μl of the sample diluted by a factor 2 using PBS buffer solution (i.e., corresponding to 5 μg tissues) were added and incubated for 5 minutes at room temperature. […] After 5 minutes, absorbance was measured at 340 nm by using a microreader (Ainitial).
After adding 10 μl of glutamate dehydrogenase solution and incubation for 5 minutes at room temperature, absorbance was measured at 340 nm by using a microreader (Afinal).
DA340 nm (Afinal-Ainitial) was then calculated, and DA340 nm of the blank control or DA340 nm of buffer solution blank control was excluded by subtraction for the reference and sample, respectively. […]

[4] = system: high-fat diet mouse model of type 2 diabetes; test: insulin resistance test; type: in vivo; conditions: HFD+L-Tyr vs HFD; 6 hours fasting, insulin 0.75 U/kg i.p., 15-90 minutes
Protocol: (§3) Twenty-seven C57BL/6 male mice (3-week old) were acclimated to the breeding condition for 1 week. […] Blood glucose was measured every week.
Insulin was diluted with physiological saline to prepare 0.15 U/ml solution. Blood glucose of a mouse, which has been subjected to fasting for 6 hours, was measured, and the animal was intraperitoneally injected with insulin (0.75 U/bodyweight (kg)). After the intraperitoneal injection of insulin, blood glucose was measured at time points of 15, 30, 60, and 90 minutes. Insulin injection amount(μl)=Bodyweight(g)×5 Formula (2)

NQO-1 = NQO-1 gene expression in kidney (quantitative real-time PCR), renal ischemia and reperfusion; type: in vivo, mouse; conditions: L-tyrosine 100 mg/kg oral once a day for 4 days, 24 hours after ischemia and reperfusion, vs prepared solvent
Protocol: as §1
as §2, with “Twenty-four hours after the reperfusion, the test animal was sacrificed, blood was collected from the heart, and the tissues were harvested.” left out
(§4) According to Trizol method, total RNA was extracted from kidney tissues, and cDNA was synthesized by using Revert Aid Reverse Transcription System (ThermoFisher). Quantitative PCR was carried out with CFX Connect Real-Time PCR system (Bio-Rad) by using iQ SYBR Green Super mix (Bio-Rad). […]

[5] = system: high-fat diet mouse model of type 2 diabetes; test: high-fat diet mouse model of type 2 diabetes: bodyweight, food intake amount, blood glucose; type: in vivo; conditions: HFD+L-Tyr (181 mg of L-tyrosine/kg) compared to HFD, measured every week
Protocol: as §3

nitrotyrosine protein = nitrotyrosine protein in kidney tissues (Western blot), renal ischemia and reperfusion; type: in vivo, mouse; conditions: L-tyrosine 100 mg/kg oral for 4 days, 24 hours after ischemia and reperfusion
Protocol: as §1, §2
Kidney tissues were homogenized with RIPA buffer solution. After centrifuge for 15 minutes at 16,000×g, 4° C., supernatant was collected and the protein quantification was carried out by BCA method. […]

IL-1β = IL-1β gene expression in kidney tissues (quantitative real-time PCR), renal ischemia and reperfusion; type: in vivo, mouse; conditions: L-tyrosine 100 mg/kg oral once a day for 4 days, 24 hours after ischemia and reperfusion
Protocol: as §1
as §2, with “Twenty-four hours after the reperfusion, the test animal was sacrificed, blood was collected from the heart, and the tissues were harvested.” left out
as §4

Structure (SMILES)	activity of Cu/Zn SOD (Cu/Zn SOD)	severity of seizure ([1]; ICR mouse, L-Tyr diet 181, 543 or 905 mg/kg for 1 week, kainic acid 30 mg/kg i.p., 2 hours)	mouse death ([1]; depending on intake amount of tyrosine, kainic acid 30 mg/kg i.p.)	survival ([1]; diet with feeds containing tyrosine 900 mg/kg (actual intake amount))	ROS/RNS amount in mitochondria [2]	ammonia amount in PFC [3]	blood glucose amount, insulin resistance test [4]	expression of NQO-1 gene in kidney (NQO-1)	blood glucose [5]	blood glucose ([5]; listed as L-Tyr)	amount of nitrotyrosine protein in kidney tissues (nitrotyrosine protein)	gene expression of IL-1β in kidney tissues (IL-1β)
N[C@@H](Cc1ccc(O)cc1)C(=O)O [tyrosine]	again recovered	severity of seizure is gradually reduced depending on tyrosine amount	improvement in mouse death was also observed depending on intake amount of tyrosine	all of the mice have survived	suppressed	reduced to a similar level to the normal group	–	–	–	–	–	–
N[C@@H](Cc1ccc(O)cc1)C(=O)O [L-tyrosine]	–	–	–	–	–	–	statistically significant decrease in blood glucose amount	statistically significant increase in the expression of NQO-1 gene	statistically significant decrease in blood glucose amount	statistically significant decrease	significantly reduced	suppressed
